# Measurements reported in patent US20070060558A1 (PALUMED S.A., priority 2004, published 2007).
# Structures can show the parent of a compound that is named as a salt. Where two headings read alike, the source gives them in different places.
# Experiments:
# [1] = test system: E. coli CIP 54127; test: Antibacterial activity (MIC); format: cell-based; details: Escherichia coli, CIP54127
# [2] = test system: S. aureus NorA 1199B; test: Antibacterial activity (MIC); format: cell-based, Staphylococcus aureus
# [3] = test system: Staphylococcus aureus MSSA CIP 4.83; test: Antibacterial activity (MIC/MBC); format: cell-based; details: Staphylococcus aureus
# [4] = test system: H. influenzae CIP 102514; test: Antibacterial activity (MIC/MBC); format: cell-based, Haemophilus influenzae; details: Haemophilus influenzae, CIP102514
# [5] = test system: P. aeruginosa CIP 103467; test: Antibacterial activity (MIC); format: cell-based; details: Pseudomonas aeruginosa, CIP103467
# [6] = test system: B. subtilis CIP 5262; test: Antibacterial activity (MIC); format: cell-based; details: Bacillus subtilis, CIP5262
# [7] = test system: S. pneumoniae PRSP; test: Antibacterial activity (MIC), Table VII; format: cell-based; details: Streptococcus pneumoniae
# [8] = test system: B. thuringiensis CIP 104676; test: Antibacterial activity (MIC); format: cell-based; details: Bacillus thuringiensis, CIP104676
# [9] = test system: E. faecalis VRE CIP 104676; test: Antibacterial activity (MIC/MBC); format: cell-based, Enterococcus faecalis; details: Enterococcus faecalis
# [10] = test system: S. aureus MRSA clinical isolate; test: Antibacterial activity (MIC); format: cell-based, Staphylococcus aureus; details: Staphylococcus aureus; S. aureus MRSA clinical isolate; read-out: MIC
# [11] = test system: S. pneumoniae PSSP CQI 201; test: Antibacterial activity (MIC); format: cell-based, Streptococcus pneumoniae; details: for MIC: Streptococcus pneumoniae, S. pneumoniae PSSP CQI 201, read-out: MIC
# [12] = test system: S. pyogenes CIP 56.41T; test: Antibacterial activity (MIC/MBC); format: cell-based, Streptococcus pyogenes; details: Streptococcus pyogenes, CIP56; S. pyogenes CIP 56.41T; read-out: MIC
# [13] = test system: S. pneumoniae PRSP clinical isolate; test: Antibacterial activity (MIC/MBC); format: cell-based, Streptococcus pneumoniae; details: Streptococcus pneumoniae, PRSP, read-out: MIC
# [14] = test system: S. pneumoniae mefE; test: Antibacterial activity (MIC); format: cell-based; details: Streptococcus pneumoniae; S. pneumoniae mefE (macrolide-resistant by efflux)
# [15] = test system: B. fragilis API 7716; test: Antibacterial activity (MIC); format: cell-based; details: Bacteroides fragilis, API7716
# [16] = test system: S. epidermidis MSCNS (D10); test: Antibacterial activity (MIC); format: cell-based; details: Staphylococcus epidermidis; S. epidermidis MSCNS (D10); read-out: MIC
# [17] = test system: C. difficile CIP 104282; test: Antibacterial activity (MIC); format: cell-based, Clostridium difficile; details: Clostridioides difficile, CIP104282; C. difficile CIP 104282; read-out: MIC
# [18] = test system: S. aureus VISA CIP 106757; test: Antibacterial activity (MIC); format: cell-based; details: Staphylococcus aureus; S. aureus VISA CIP 106757; read-out: MIC
# [19] = test system: Staphylococcus aureus MSSA 53.154; test: Murine experimental septicaemia, in vivo efficacy; set-up: species or system mice; details: sc, mice, subcutaneously at 1 and 6 h post infection, survival on day 9, hybrid molecules formulated in water as their bis(hydrochloride) salt, read-out: ED50
# Protocol: Experimental septicaemia was induced in mice as follows. Briefly, male Swiss OF1 mice (IFFA CREDO-Charles River) weighing 18 to 20 grams were infected intraperitoneally with 0.5 mL of a bacterial suspension containing 8.5×10^7 cfu of Staphylococcus aureus MSSA 53.154 (Institut Pasteur). The hybrid molecules were administered subcutaneously at 1 and 6 h post infection. Control and treatment groups at each dose were composed of seven mice. All the infected but untreated control mice died within 9 days. The 50% effective dose (ED50) values were calculated by a computerized program (GraphPad) from the survival rates on day 9 after infection.
# [20] = test system: E. faecium VRE VanA CIP107387; test: Antibacterial activity (MIC); format: cell-based; details: Enterococcus faecium; E. faecium VRE VanA CIP107387; read-out: MIC
# [21] = test system: S. pneumoniae PRSP (CQR 162); test: Antibacterial activity (MIC); format: cell-based; details: Streptococcus pneumoniae; S. pneumoniae PRSP (CQR 162); read-out: MIC
# [22] = test system: S. aureus MsrA PUL 5054; test: Antibacterial activity (MIC); format: cell-based; details: Staphylococcus aureus
# [23] = test system: S. epidermidis MRCNS (E93); test: Antibacterial activity (MIC); format: cell-based; details: Staphylococcus epidermidis; S. epidermidis MRCNS (E93); read-out: MIC
# [24] = test system: E. faecalis VRE VanB CIP106998; test: Antibacterial activity (MIC); format: cell-based; details: Enterococcus faecalis; E. faecalis VRE VanB CIP106998; read-out: MIC
# [25] = test system: E. faecalis VRE VanA CIP106996; test: Antibacterial activity (MIC); format: cell-based; details: Enterococcus faecalis; E. faecalis VRE VanA CIP106996; read-out: MIC
# [26] = test system: Human lung fibroblast cells (ATCC CCL-171); test: Cytotoxicity (MTT) assay; details: human, 18 hr
# Protocol: Cellular toxicity was measured by a colorimetric assay that makes use of the tetrazolium salt, MTT. Human lung fibroblast cells (ATCC CCL-171) were plated in 96-well plates at 10^4 cells per well and incubated under 5% CO2 at 37° C. for 24 hr to allow adherence of cells to the plate. Test compounds were prepared as a stock solution at 1 mg/mL in 1% DMSO/water and diluted with water for the serial dilutions (500-7.8 μg/mL). Cells underwent a 18 hr treatment under 5% CO2 at 37° C. with experimental drugs. Corresponding controls received either no drug treatment or treatment with SDS (sodium dodecyl sulfate). The optical density of each sample was read on a microplate spectrophotometer reader at 600 nm and cell survival was expressed as a fraction of that of untreated controls. A drug is said cytotoxic when this fraction is ≦−30%
# [27] = E. coli CIP 54127, read-out: MIC
# [28] = Staphylococcus aureus, NORA1199B
# [29] = S. aureus MSSA CIP 4.83, read-out: MIC
# [30] = H. influenzae CIP 102514, read-out: MIC
# [31] = P. aeruginosa CIP 103467, read-out: MIC
# [32] = B. subtilis CIP 5262, read-out: MIC
# [33] = S. pneumoniae PRSP (Table VII), read-out: MIC
# [34] = B. thuringiensis CIP 104676, read-out: MIC
# [35] = E. faecalis VRE CIP 104676, read-out: MIC
compound,measurement,setting,value
"O=C(O)c1cn(C2CC2)c2cc(N3CCNCC3)c(F)cc2c1=O [Ciprofloxacin, reference compound]",MIC,[1]; [27],0.01 µg/mL
same,MIC,[2]; S. aureus NorA 1199B (quinolone-resistant by efflux),>50 µg/mL
same,MIC,[2]; [28],> 50 µg/mL
same,MIC,[3]; [29],0.312 µg/mL
same,MIC,[4]; [30],0.1 µg/mL
same,MIC,[5]; [31],0.156 µg/mL
same,MIC,[6]; [32],0.04 µg/mL
same,MIC,[7]; [33],1.25 µg/mL
same,MIC,[8]; [34],0.156 µg/mL
same,MIC,[9]; [35],1.25 µg/mL
"CC[C@H]1OC(=O)[C@H](C)[C@@H](O[C@H]2C[C@@](C)(OC)[C@@H](O)[C@H](C)O2)[C@H](C)[C@@H](O[C@@H]2O[C@H](C)C[C@H](N(C)C)[C@H]2O)[C@](C)(O)C[C@@H](C)C(=O)[C@H](C)[C@@H](O)[C@]1(C)O [Erythromycin, reference compound]",MIC,[10],0.156 µg/mL
same,MIC,[11],0.039 µg/mL
same,MIC,[3]; [29],0.156 µg/mL
same,MIC,[12],0.039 µg/mL
same,MIC,[13],> 5 µg/mL
same,MIC,[14],5 µg/mL
"Cc1ncc([N+](=O)[O-])n1CCO [Metronidazole, reference compound]",MIC,[15],0.2 µg/mL
"Cl.O=C(O)c1cn(C2CC2)c2cc(N3CCN(CCNc4ccnc5cc(Cl)ccc45)CC3)c(F)cc2c1=O [PA 1127, 7-{4-[2-(7-Chloroquinolin-4-ylamino)-ethyl]-piperazin-1-yl}-1-cyclopropyl-6-fluoro-4-oxo-1,4-dihydroquinoline-3-carboxylic acid hydrochloride]",MIC,[1]; [27],0.156 µg/mL
same,MIC,[2]; [28],3 µg/mL
same,MIC,[3]; [29],1.25 µg/mL
same,MIC,[4]; [30],0.156 µg/mL
same,MIC,[5]; [31],5 µg/mL
same,MIC,[6]; [32],0.312 µg/mL
same,MIC,[7]; [33],2.5 µg/mL
same,MIC,[8]; [34],0.625 µg/mL
same,MIC,[9]; [35],1.25 µg/mL
"Cc1ncc([N+](=O)[O-])n1CCNc1ccnc2cc(Cl)ccc12 [PA 1129, (7-Chloroquinolin-4-yl)-[2-(2-methyl-5-nitroimidazol-1-yl)-ethyl]-amine]",MIC,[15],0.78 µg/mL
"Cc1ncc([N+](=O)[O-])n1CCNc1ccnc2cc(C(F)(F)F)ccc12 [PA 1130, [2-(2-Methyl-5-nitroimidazol-1-yl)-ethyl]-(7-trifluoromethylquinolinyl-4-yl)-amine]",MIC,[15],3.12 µg/mL
"CN[C@H](CC(C)C)C(=O)N[C@H]1C(=O)N[C@@H](CC(N)=O)C(=O)N[C@H]2C(=O)N[C@H]3C(=O)N[C@H](C(=O)N[C@H](C(=O)O)c4cc(O)cc(O)c4-c4cc3ccc4O)[C@H](O)c3ccc(c(Cl)c3)Oc3cc2cc(c3OC2OC(CO)C(O)C(O)C2OC2CC(C)(NCc3ccc(OCCNc4ccnc5cc(Cl)ccc45)cc3)C(O)C(C)O2)Oc2ccc(cc2Cl)[C@H]1O (stereo partly drawn) [PA 1157, N-4-{4-[2-(7-Chloroquinolin-4-ylamino)ethoxy]-benzyl}-vancomycin]",MIC,[16],0.05 µg/mL
same,MIC,[17],0.078 µg/mL
same,MIC,[18],0.1 µg/mL
same,MIC,[10],0.2 µg/mL
same,MIC,[11],0.003 µg/mL
same,ED50,[19],0.09 mg/kg
same,MIC,[20],6.25 µg/mL
same,MIC,[3]; [29],0.012 µg/mL
same,MIC,[12],0.125 µg/mL
same,MIC,[21],0.003 µg/mL
same,MIC,[22],< 0.045 µg/mL
same,MIC,[23],0.003 µg/mL
same,MIC,[24],6.25 µg/mL
same,MIC,[25],3.12 µg/mL
same,% of survival cells compared to the untreated controls,[26]; 7.8 μg/mL,−22.0%
same,% of survival cells compared to the untreated controls,[26]; 15.6 μg/mL,−22.5%
same,% of survival cells compared to the untreated controls,[26]; 31.2 μg/mL,−24.2%
same,% of survival cells compared to the untreated controls,[26]; 62.5 μg/mL,−24.9%
same,% of survival cells compared to the untreated controls,[26]; 125 μg/mL,−26.9%
same,% of survival cells compared to the untreated controls,[26]; 250 μg/mL,−26.2%
same,% of survival cells compared to the untreated controls,[26]; 500 μg/mL,−29.2%
"CN[C@H](CC(C)C)C(=O)N[C@H]1C(=O)N[C@@H](CC(N)=O)C(=O)N[C@H]2C(=O)N[C@H]3C(=O)N[C@H](C(=O)N[C@H](C(=O)O)c4cc(O)cc(O)c4-c4cc3ccc4O)[C@H](O)c3ccc(c(Cl)c3)Oc3cc2cc(c3OC2OC(CO)C(O)C(O)C2OC2CC(C)(NCCCCNc3ccnc4cc(Cl)ccc34)C(O)C(C)O2)Oc2ccc(cc2Cl)[C@H]1O (stereo partly drawn) [PA 1158, N-4-[4(7-Chloroquinolin-4-ylamino)-butyl]-vancomycin]",MIC,[16],0.1 µg/mL
same,MIC,[17],0.078 µg/mL
same,MIC,[18],0.39 µg/mL
same,MIC,[10],0.2 µg/mL
same,MIC,[11],0.012 µg/mL
same,ED50,[19],0.26 mg/kg
same,MIC,[20],25 µg/mL
same,MIC,[3]; [29],0.1 µg/mL
same,MIC,[12],0.062 µg/mL
same,MIC,[21],0.025 µg/mL
same,MIC,[22],< 0.045 µg/mL
same,MIC,[23],0.05 µg/mL
same,MIC,[24],6.25 µg/mL
same,MIC,[25],6.25 µg/mL
same,% of survival cells compared to the untreated controls,[26]; 7.8 μg/mL,−11.8%
same,% of survival cells compared to the untreated controls,[26]; 15.6 μg/mL,−13.2%
same,% of survival cells compared to the untreated controls,[26]; 31.2 μg/mL,−10.7%
same,% of survival cells compared to the untreated controls,[26]; 62.5 μg/mL,−16.9%
same,% of survival cells compared to the untreated controls,[26]; 125 μg/mL,−16.9%
same,% of survival cells compared to the untreated controls,[26]; 250 μg/mL,−19.8%
same,% of survival cells compared to the untreated controls,[26]; 500 μg/mL,−18.4%
"CC[C@@H]1OC(=O)[C@H](C)[C@H](OC2CC(C)(OC)C(O)C(C)O2)[C@@H](C)[C@@H](OC2OC(C)CC(N(C)C)C2O)[C@](C)(O)C[C@@H](C)/C(=N\OCCCNc2ccnc3cc(Cl)ccc23)[C@@H](C)[C@H](O)[C@]1(C)O (stereo partly drawn) [PA 1169, 10{O-[3-(7-Chloroquinolin-4-ylamino)-propyl]-oxime}-erythromycin]",MIC,[10],0.31 µg/mL
same,gain in activity (factor),"[11]; Streptococcus pneumoniae PSSP, versus macrolide residue",8
same,MIC,[11],0.005 µg/mL
same,MIC,[3]; [29],0.156 µg/mL
same,MIC,[12],0.078 µg/mL
same,MIC,[13],> 5 µg/mL
same,MIC,[14],1.25 µg/mL
O=C(O)c1cn(C2CC2)c2cc(N3CCN(c4ccnc5cc(Cl)ccc45)CC3)c(F)cc2c1=O [hydrochloride],MIC,[1],0.612 µg/mL
same,fold more active than the sub-structure from which it comes,"[2]; S. aureus NorA, versus ciprofloxacin",280
same,MIC,[2]; [28],0.18 µg/mL
same,MIC,[3],0.156 µg/mL
same,MIC,[4],0.312 µg/mL
same,MIC,[5],5 µg/mL
same,MIC,[6],< 0.001 µg/mL
same,MIC,[7]; PRSP,0.078 µg/mL
same,MIC,[8],0.156 µg/mL
same,MIC,[9],0.078 µg/mL
